The values below come from US10301279B2, “Piperidine carboxamide compound, preparation method, and use thereof” (Institute of Pharmacology and Toxicology Academy of …, priority 2013, dated 2019).

Assay [1] has as its target T1, Hsp70 (Homo sapiens, UniProt P0DMV8).
T1 construct: purchased Enzo Life Sciences ADI-ESP-550-D
In words: Measurement of affinity for Hsp70 (BIACORE T100, CM5 chip). It is filed as binding. As to conditions: for effect in preliminary screening of binding to Hsp70, compared with positive compound VER-155008: at 10 μm; for pKd: steady state model, 25° C., PBS containing 5% DMSO. On the procedure:
1. Instrument: BIACORE T100 biomolecular interaction analyzer (GE, USA)
2. Reagents: PBS Buffer (×10), P20, CM5 chip (GE, USA), Hsp70 (human, ADI-ESP-550-D), manufactured by Enzo Life Sciences.
30 mM mother liquor of compound was formulated with DMSO, which was diluted to 2 mM application solution with DMSO before use. 5 μl of the application solution was taken and diluted with 95 μl 1.05×PBS to 100 μM, and then diluted in turn with PBS containing 5% DMSO to 10, 3, 1, 0.3, 0.1, 0.03, 0.01, 0.003 μM, […]. PBS containing 5% DMSO was used as solvent control.
Hsp70 protein was diluted with 10 mmol/L sodium acetate buffer solution (pH 5.0) to 30 μg/ml, and coupled directly on a hydrophilic carboxylmethyl dextran matrix sensor chip M5 through normalized primary amine coupling reaction, RU=11209, and then the chip was balanced for 1-2 h with PBS Buffer at […].
At a flow rate of […], with PBS containing 5% DMSO as mobile phase, at 25° C., the compound was introduced in the sequence of 0.003, 0.01, 0.03, 0.1, 0.3, 1, 3 and 10 μM, with binding time 90 seconds, and dissociation time 120 seconds.
According to binding characteristics between the compounds and protein, the binding constant (equilibrium dissociation constant KD) between drugs and protein was calculated by selecting steady state model with the formula: Conc*Rmax/[conc+KD]+offset.
At a flow rate of […], PBS containing 5% DMSO as mobile phase, at 25° C., the compound was injected in the order of 0.003, 0.01, 0.03, 0.1, 0.3, 1, 3, and 10 μM, with the binding time of 90 sec, and the dissociation time of 120 sec.
(Surface plasmon resonance follows binding to a sensor surface in real time, without labels.)

For another assay, the system named is SK/Lap^R1.0. In words: Cell survival (ATPlite/CellTiter-Glo luminescence), alone and combined with lapatinib. As to conditions: SK/Lap^R1.0 cells, 72 hours. The format is cell-based, human. How it is done: (§1) Cells plating: a 100 mm culture dish with overgrown adherent cells was digested with 1 ml 0.25% trypsin (GIBCO) at 37° C. for 5 min, and the reaction was terminated with 2 ml culture medium (containing 10% FBS, GIBCO). The cells were scattered and collected, after counting, diluted to 1×10^5 cells/ml, and seeded into a 96-well plate at 50 μl/well, 5000 cells/well, excluding the peripheral circle of wells to which no cell was added, but PBS was added, 60 wells in total, and then incubated at 37° C. for 24 hours for adhering.
(§2) Test after incubation at 37° C. for 72 hours: […] of ATPlite kit substrate solution was added in each well, and vibrated for 3 min, followed by placing aside in darkness for 10 min, and then supernatant 100 μl/well was taken and placed on aluminescence test plate; the luminescence test plate that has been fully incubated was placed in a luminescence test instrument, to read luminescence value.
(§3) (1) Cell survival rate (%)=Experimental group RLU/control group RLU×100%. The experimental data were subjected to data analysis and processing by utilizing GraphPad software.
(§4) (2) The nature of interaction between two drugs was evaluated by using coefficient of drug interaction (CDI), CDI being calculated as follows: CDI=AB/(A×B)×100%. As calculated according to the number of viable cells (luminescence value), when CDI<1, the nature of interaction between two drugs is synergism; when CDI<0.7, the synergism is very significant; when CDI=1, the nature of interaction between two drugs is addition; when CDI>1, the nature of interaction between two drugs is antagonism.

The next assay relates to MDA-MB-361. Described as above. The format is cell-based, human. The note with it: MDA-MB-361 cells, 72 hours. On the procedure: as §1, §2, §3, §4
In another assay the test system is MDA-MB-453. Described as above. The format is cell-based, human. As to conditions: MDA-MB-453 cells; for Survival rate %: 72 hours. On the procedure: as §1, §2, §3, §4
The next assay deals with SK-BR3. The assay is described as above. The format is cell-based, human. As to conditions: SK-BR3 cells; for Survival rate %: 72 hours. On the procedure:
as §1, §2, §3, §4

Another assay has as its system BT/Lap^R1.0. Described as above. It is filed as cell-based, human. The note with it: BT/Lap^R1.0 cells; for Survival rate %: 72 hours. How it is done:
as §1, §2, §3, §4

Another assay has as its system BT474. The assay is described as above. It is filed as cell-based, human. The note with it: BT474 cells; for Survival rate %: 72 hours. How it is done:
as §1, §2, §3, §4

Assay [2] has as its target T1, Hsp70. The note with it: literature value (Cancer Chemother Pharmacol 2010, 66: 535-545); read-out: affinity for Hsp70, literature value; cited from earlier work.
Where [3] appears, read: Example 30 10 μM alone (Lapatinib 0).
Setting [4] is: Example 30 10 μM combined with Lapatinib 1 μM.
[5] abbreviates: Example 30 10 μM with Lapatinib 1 μM, CDI<1 synergism.
Setting [6] is: Lapatinib 1 μM alone (Example 30 0 μM).

pKd: −log10 of the molar value. Like-named read-outs stand apart in the source and are kept apart here.

T1 sequence (P0DMV8 whole entry): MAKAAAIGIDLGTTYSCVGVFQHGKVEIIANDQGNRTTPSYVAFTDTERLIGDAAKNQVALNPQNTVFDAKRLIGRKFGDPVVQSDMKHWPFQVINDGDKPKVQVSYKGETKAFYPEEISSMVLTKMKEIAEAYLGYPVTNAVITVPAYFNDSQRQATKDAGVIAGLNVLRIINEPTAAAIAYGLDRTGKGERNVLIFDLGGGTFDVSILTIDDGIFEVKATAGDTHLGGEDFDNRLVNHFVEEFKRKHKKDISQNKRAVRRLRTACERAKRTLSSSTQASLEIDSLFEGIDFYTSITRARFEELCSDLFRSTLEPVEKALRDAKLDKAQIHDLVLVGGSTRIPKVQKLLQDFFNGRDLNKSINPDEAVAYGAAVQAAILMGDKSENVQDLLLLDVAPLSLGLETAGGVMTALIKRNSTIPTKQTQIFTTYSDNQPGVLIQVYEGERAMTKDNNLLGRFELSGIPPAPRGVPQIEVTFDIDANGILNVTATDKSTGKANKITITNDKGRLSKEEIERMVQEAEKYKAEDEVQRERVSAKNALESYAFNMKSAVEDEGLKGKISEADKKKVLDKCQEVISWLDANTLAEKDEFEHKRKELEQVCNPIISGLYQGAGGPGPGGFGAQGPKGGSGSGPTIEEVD

`CN(C(=O)OC(C)(C)C)C1CCN(c2nccc(Cl)n2)CC1` [Example 1, t-butyl N-methyl-N-[1-(4-chloropyrimidin-2-yl)piperidin-4-yl]carbamate]: on Hsp70 [1], the “effect in preliminary screening of binding to Hsp70, compared with positive compound VER-155008” value is “equivalent to that of positive compound VER-155008” and the pKd is 5.66.

Consider `CN(C(=O)OC(C)(C)C)C1CCN(c2ccnc(Cl)n2)CC1` [Example 2, t-butyl N-methyl-N-[1-(2-chloropyrimidin-4-yl)piperidin-4-yl]carbamate], for which, at Hsp70 [1], the “effect in preliminary screening of binding to Hsp70, compared with positive compound VER-155008” value is recorded as “equivalent to that of positive compound VER-155008” and the pKd is 6.61.

Turning to `CN(C(=O)OC(C)(C)C)C1CCN(c2cc(Cl)ncn2)CC1` [Example 3, t-butyl N-methyl-N-[1-(6-chloropyrimidin-4-yl)piperidin-4-yl]carbamate], at Hsp70 [1], the “effect in preliminary screening of binding to Hsp70, compared with positive compound VER-155008” value is “equivalent to that of positive compound VER-155008” and the pKd was 6.28.

As to `COc1nccc(N2CCC(N(C)C(=O)OC(C)(C)C)CC2)n1` [Example 5, t-butyl N-methyl-N-[1-(2-methoxypyrimidin-4-yl)piperidin-4-yl]carbamate], the “effect in preliminary screening of binding to Hsp70, compared with positive compound VER-155008” value on Hsp70 [1] is reported as “equivalent to that of positive compound VER-155008”.

Regarding `CSc1nccc(N2CCC(N(C)C(=O)OC(C)(C)C)CC2)n1` [Example 6, t-butyl N-methyl-N-[1-(2-methylthiopyrimidin-4-yl)piperidin-4-yl]carbamate], on Hsp70 [1], the “effect in preliminary screening of binding to Hsp70, compared with positive compound VER-155008” value was “equivalent to that of positive compound VER-155008” and the pKd was 4.90.

Take `CSc1nccc(N2CCC(N(C)C(=O)O[C@H]3CCN(S(=O)(=O)c4cccs4)C3)CC2)n1` [Example 13, (S)-[1-(2-thienylsulfonyl)pyrrolidin-3-yl] N-methyl-N-[1-(2-methylthiopyrimidin-4-yl)piperidin-4-yl]carbamate]: at Hsp70 [1], the “effect in preliminary screening of binding to Hsp70, compared with positive compound VER-155008” value is on record as “equivalent to that of positive compound VER-155008” and the pKd was 6.28.

With `CN(C(=O)Cn1ccnc1)C1CCN(c2nccc(Cl)n2)CC1` [Example 30, N-methyl-N-[1-(4-chloropyrimidin-2-yl)piperidin-4-yl]-[2-(imidazol-1-yl)]acetamide], on Hsp70 [1], the “effect in preliminary screening of binding to Hsp70, compared with positive compound VER-155008” value is “equivalent to that of positive compound VER-155008”. The same compound showed a pKd at Hsp70 [1] of 6.65. For the same compound, the Survival rate % in the assay with SK/Lap^R1.0 (setting [3]) was determined as 94.2%; in the assay with SK/Lap^R1.0 (setting [4]), 56.9%; with MDA-MB-361 (setting [3]), 104.1%; in the assay on MDA-MB-361 (setting [4]), 69.1%; in the assay on MDA-MB-453 (setting [3]), 82.8%; in the assay on MDA-MB-453 (setting [4]) it was 36.6%. For the same compound, the Survival rate % in the assay on SK-BR3 (setting [3]) turned out to be 83.8%; in the assay with SK-BR3 (setting [4]) it was 24.9%; in the assay on BT/Lap^R1.0 (setting [3]) it was 92.5%; in the assay with BT/Lap^R1.0 (setting [4]), 50.6%; with BT474 (setting [3]) it was 93.5%; in the assay with BT474 (setting [4]), 24.8%. Also, the “CDI (coefficient of drug interaction)” value in the assay on MDA-MB-453 (setting [5]) amounted to 1.26; with SK-BR3 (setting [5]), 1.13; in the assay on BT/Lap^R1.0 (setting [5]), 1.03; with BT474 (setting [5]), 1.05.

On to `COc1ccnc(N2CCC(N(C)C(=O)Cn3cncn3)CC2)n1` [Example 42, N-methyl-N-[1-(4-methoxypyrimidin-2-yl)piperidin-4-yl]-2-(1H-1,2,4-triazol-1-yl) acetamide], for which, on Hsp70 [1], the “effect in preliminary screening of binding to Hsp70, compared with positive compound VER-155008” value is reported as “equivalent to that of positive compound VER-155008” and the pKd was 6.36.

`CS(=O)(=O)CCNCc1ccc(-c2ccc3ncnc(Nc4ccc(OCc5cccc(F)c5)c(Cl)c4)c3c2)o1` [Lapatinib, reference compound]: the Survival rate % amounted to 92.7% in the assay with SK/Lap^R1.0 (setting [6]); 70.4% in the assay on MDA-MB-361 (setting [6]); 26.3% with SK-BR3 (setting [6]); 53.0% in the assay on BT/Lap^R1.0 (setting [6]); 25.1% in the assay with BT474 (setting [6]).

As for `N#Cc1ccc(COC[C@H]2O[C@@H](n3c(NCc4ccc(Cl)c(Cl)c4)nc4c(N)ncnc43)[C@H](O)[C@@H]2O)cc1` [VER-155008], on Hsp70 [2], the pKd is 6.52.
